The text below walks through data of patent US20170266289A1, “TOPICAL FORMULATION” (AbbVie Inc., priority 2014, published 2017).

In general, Cmax refers to the peak of the concentration-time curve. The AUC(0-t) is the area under the concentration-time curve up to a stated or last time point.

A short description of data set [1]: In vitro release testing in […] plates, flux through polyester membrane. The data set is classed as in vitro ADME. The protocol: (§1) Diffusion assays were performed using Franz Cells and […]® plates, with Tuffryn®, polycarbonate, or polyester membranes, as well as hairless mouse skin. HPLC was employed to analyze in vitro samples.
(§2) For in vitro release testing in […]® plates, a two-compartment well system was used, with an internal well having a membrane as the formulation compartment, and an outer well filled with receptor media (phosphate buffer with 2% BSA). The TRANS WELL® plates were then agitated in a temperature-controlled incubator with shaker. Samples were manually pulled at pre-determined intervals with a pipette. New media was added to the receptor well after each sampling to make up the volume loss.
(§3) Generally, flux is calculated by determining the amount of solute that diffuses across a membrane of known surface area per unit time. There are many ways to calculate this value. We measured solute concentration in known volumes of receiver media and calculated the total amount that diffused over the time course of the experiment.

Data set [2] in a line: Optical microscopy examination of the formulations. The data set is classed as physicochemical. The following applies: increasing the Transcutol HP content; data not shown. The text has this:
Thus maintaining a saturated solution with the presence of TRANSCUTOL HP™ is expected to increase in vitro flux and increase resultant skin exposures.

Data set [3] in a line: In vitro release testing in […] plates, flux through polycarbonate membrane. The format is in vitro ADME. The protocol: as §1, §2, §3
A short description of data set [4]: Plasma PK and skin concentration after topical application of gel-cream to shaved backs of rats. The format is in vivo. The conditions noted are these: for Cmax / AUC(0-t): topical or ocular, rat plasma; for Kp at 24 h: skin/plasma. The protocol:
In order to assess the effect of the permeation enhancer on API delivery to the skin (topical delivery) and to the plasma (systamic delivery) in vivo, 177.8 mg of the subject topical formulation (177.8 μL of the 1% Compound 1 gel-cream, or about 1.778 mg of Compound 1) was applied to the backs of rats on a 4 cm^2 area of shaved skin. Plasma PK data was obtained during a period of about 24 hours following the topical application. See results in FIG. 9A, and the tables below.
The same experiment was repeated for a topical formulation using Compound 2 as the API. Also see FIG. 9B.

Data set [5] is described as follows: In vitro release testing in Franz Cells, flux through Tuffryn membrane. The data set is classed as in vitro ADME. On the procedure:
as §1
Specifically, for the in vitro release testing in Franz Cells, vertical diffusion cells were filled with receptor media (phosphate buffer with 2% BSA). The receptor media was then agitated, with the exception of setup and sampling. Temperature is maintained at 32.5±2.0° C. Artificial membrane was then placed on the top of the cell, along with a dosage wafer, the formulation to be evaluated, and a glass sealing cap. A formulation permeability test was run in triplicate. Samples were collected at various programmed intervals, and sampling was an automated process by the system. Fresh media was pushed into the bottom of the cell while simultaneous sampling occurs from the top of the cell. All wells were sampled in a serial manner with the time of each sample recorded by the instrument.
as §3

In data set [6] the test system is FITC-induced contact hypersensitivity (CHS). Kind of data set: Topical treatment after FITC challenge in FITC-induced contact hypersensitivity, ear skin thickness. The data set is classed as in vivo, mice. The following applies: 4 hrs post FITC challenge. On the procedure: Briefly, on Day 0, ears of experimental animals were sensitized with FITC. […] Naïve group animals received no treatment during the experiment. On Day 7, about 24 hours post FITC challenge, ear thickness (in mm) of all animals were measured. […]

A further data set can be described thus: Stability in plasma. The data set is classed as in vitro ADME. From the text: Note that, due to the fact that BMS DPP is unstable in the plasma, the total blood concentration of BMS DPP cannot be determined.
The subject of data set [7] is FITC-induced contact hypersensitivity (CHS). Kind of data set: Prophylactic topical treatment of FITC-induced contact hypersensitivity, ear skin thickness. The format is in vivo, mice. The conditions noted are these: 1 hr prior to FITC challenge. From the text:
Contact hypersensitivity (CHS) is an immunological response against a small chemical hapten. During the sensitization phase, dermal dendritic cells (DCs) and Langerhans cells take up the hapten peptide conjugate and process it and migrate to the draining lymph node, where they present the antigen (Ag) to naive T cells, leading to the formation of Ag-specific memory T cells. Subsequent contact with the same chemical results in the activation of memory T cells and the recruitment of inflammatory cells to the site of allergen exposure. This elicitation response is manifested as skin inflammation, which in a clinical context is called allergic contact dermatitis. One of the small chemical haptens is FITC. FITC-induced CHS is believed to be predominantly associated with the activation of Th2 cells. Upon challenging the skin with FITC in mice sensitized with FITC, it is believed that FITC-specific T cells are recruited to the skin and produce Th2 cytokines, including IL-4.
Briefly, on Day 0, ears of experimental animals were sensitized with FITC. On Day 6, ears of the treatment group animals (0.01%, 0.1%, and 1% treatment groups) were first provided topical treatment of the subject formulations one hour prior to the FITC challenge. Specifically, 20 μL total (10 μL inner ear, and 10 μL outer ear) of topical treatment were massaged all around the ear of each experimental animals prior to FITC epicutaneous application. […] Naïve group animals received no treatment during the experiment. On Day 7, about 24 hours post FITC challenge, ear thickness (in mm) of all animals were measured.
Betamethasone Dipropionate (BMS DPP) topical cream formulations with different concentrations (0.005%, 0.01%, 0.1%, and 1% w/w) were prepared according to Example 3.

Setting [8] is: individual rats 1-3, topical 177.8 mg/animal in Formulation A (no Transcutol HP), 24 hr after dose.
Where [9] appears, read: individual rats 4-6, topical 177.8 mg/animal in Formulation B (10% Transcutol HP), 24 hr after dose.

“And” between values parts separate entries of the source, which are not always exact repeats. Equal values may be shown once. Read-outs that look alike come from different tables or passages of the source.

Consider `CC[C@@H]1C[C@H](NS(=O)(=O)C2CC2)C[C@@H]1c1nnc2cnc3[nH]ccc3n12` [Compound 1, N-((1S,3R,4S)-3-ethyl-4-(6H-pyrrolo[2,3-e][1,2,4]triazolo[4,3-a]pyrazin-1-yl)cyclopentyl)cyclopropanesulfonamide], for which the “Ratio Transcutol HP/no enhancer, Flux TRANSWELL Plate polyester membrane” value in data set [1] came out at 1.33. Also, the “Flux TRANSWELL Plate polyester membrane” value in data set [1] (Transcutol 10%) came out at 5.42; in data set [1] (no permeation enhancer), 4.09. Moreover, the “amount solubilized in the gel-cream formulation” value in data set [2] is reported as “solubilizes a greater amount”. Also, the “Ratio Transcutol HP/no enhancer, Flux TRANSWELL plate Polycarbonate membrane” value in data set [3] was 1.35. The “Flux TRANSWELL plate Polycarbonate membrane” value is reported as 11.46 in data set [3] (Transcutol 10%) and 8.52 in data set [3] (no permeation enhancer). Also, the Cmax turned out to be 70.7 ng/mL in data set [4] (rat, plasma, 177.8 mg, 177.8 mg 1% gel-cream topical on 4 cm^2, 10% Transcutol HP) and 11.4 ng/mL in data set [4] (rat, plasma, 177.8 mg, 177.8 mg 1% gel-cream topical on 4 cm^2, no permeation enhancer). For the same compound, the AUC(0-t) was 392 ng·h/mL in data set [4] (rat, plasma, 177.8 mg, 177.8 mg 1% gel-cream topical, 10% Transcutol HP) and 62.4 ng·h/mL in data set [4] (rat, plasma, 177.8 mg, 177.8 mg 1% gel-cream topical, no permeation enhancer). Besides, the concentration at 24 h in data set [4] (rat, skin, topical, 1.778 mg, rat skin, 177.8 mg 1% gel-cream topical, 10% Transcutol HP, read-out: Skin conc. 24 hr) came out at 25000 ng/g; in data set [4] (rat, skin, topical, 1.778 mg, rat skin, 177.8 mg 1% gel-cream topical, no permeation enhancer, read-out: Skin conc. 24 hr) it was 5340 ng/g. Further, the “Ratio Transcutol HP/no enhancer, Plasma AUC0-t” value in data set [4] (rat, topical) came to 6.28. Further, in data set [4] (rat, topical), the “Ratio Transcutol HP/no enhancer, Skin conc. 24 hr” value turned out to be 4.67. Also, the “Ratio Transcutol HP/no enhancer, Flux Franz Cells Tuffryn membrane” value in data set [5] amounted to 1.20. Moreover, the “Flux Franz Cells Tuffryn membrane” value in data set [5] (Transcutol 10%) is recorded as 7.64; in data set [5] (no permeation enhancer), 6.34.
`CCC(=O)OCC(=O)[C@@]1(OC(=O)CC)[C@@H](C)C[C@H]2[C@@H]3CCC4=CC(=O)C=C[C@]4(C)[C@@]3(F)[C@@H](O)C[C@@]21C` [BMS DPP, Betamethasone Dipropionate]: the “reduced ear skin thickness” value is 95% in data set [6] (Study 1, 0.1%); 96% in data set [6] (Study 1, 1%); 92% in data set [6] (Study 2, 0.01%); 96% in data set [6] (Study 2, 0.1%); 77% in data set [7] (Study 1, 0.01%); 93% in data set [7] (Study 1, 0.1%). The “reduced ear skin thickness” value in data set [7] (Study 1, 1%) is 95%; in data set [7] (Study 2, 0.005%), 61%; in data set [7] (Study 2, 0.01%), 73%; in data set [7] (Study 2, 0.1%), 93%. The “reduced ear skin thickness, effect” value in data set [6] (combined Study 1 and 2, 0.01%) worked out at 92%; in data set [6] (combined Study 1 and 2, 0.1%), 95%; in data set [6] (combined Study 1 and 2, 1%), 96%; in data set [7] (combined Study 1 and 2, 0.005%), 61%; in data set [7] (combined Study 1 and 2, 0.01%), 75%; in data set [7] (combined Study 1 and 2, 0.1%), 93%. Also, the “reduced ear skin thickness, effect” value in data set [7] (combined Study 1 and 2, 1%) is 95%. In the data set “Stability in plasma”, the “stability in the plasma” value is “unstable”.
Consider `CC[C@@H]1CN(C(=O)NCC(F)(F)F)C[C@@H]1c1cnc2cnc3[nH]ccc3n12` [Compound 2, (3S,4R)-3-ethyl-4-(3H-imidazo[1,2-a]pyrrolo[2,3-e]pyrazin-8-yl)-N-(2,2,2-trifluoroethyl)pyrrolidine-1-carboxamide], for which the “Plasma Conc.” value in data set [4] (setting [8]) is 0.00 ng/mL; in data set [4] (setting [9]) it was 4.46 ng/mL and 2.87 ng/mL and 0.00 ng/mL. Moreover, the “Skin Conc.” value in data set [4] (setting [8]) is 2393 ng/g and 5908 ng/g and 7728 ng/g; in data set [4] (setting [9]), 31734 ng/g and 16020 ng/g. For the same compound, the “Skin/Plasma Ratio” value in data set [4] (individual rats 4-6, Formulation B, 24 hr after dose) is listed as 11076. Moreover, the concentration at 24 h in data set [4] (rat, plasma, topical, 177.8 mg, mean of rats 1-3, Formulation A, 24 hr after dose, read-out: Plasma Conc., Mean) came to 0 ng/mL; in data set [4] (rat, plasma, topical, 177.8 mg, mean of rats 4-6, Formulation B, 24 hr after dose, read-out: Plasma Conc., Mean) it was 2.44 ng/mL; in data set [4] (rat, plasma, topical, 177.8 mg/animal, individual rats 1-3, topical 177.8 mg/animal in Formulation A (no Transcutol HP), 24 hr after dose, read-out: Plasma Conc.) it was 0 ng/mL; in data set [4] (rat, skin, topical, 177.8 mg, mean of rats 1-3, Formulation A, 24 hr after dose, read-out: Skin Conc., Mean), 5340 ng/g; in data set [4] (rat, skin, topical, 177.8 mg, mean of rats 4-6, Formulation B, 24 hr after dose, read-out: Skin Conc., Mean), 25000 ng/g; in data set [4] (rat, skin, topical, 177.8 mg/animal, individual rats 4-6, topical 177.8 mg/animal in Formulation B (10% Transcutol HP), 24 hr after dose, read-out: Skin Conc.) it was 27100 ng/g. Moreover, the Kp at 24 h in data set [4] (rat, topical, 177.8 mg, individual rats 4-6, Formulation B, 24 hr after dose, read-out: Skin/Plasma Ratio) came out at 6080; in data set [4] (rat, topical, 177.8 mg, mean, Formulation B, 24 hr after dose, read-out: Skin/Plasma Ratio, Mean) it was 8580.
